The values that follow come from PubChem BioAssay (NCI).

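Exposure lasted 48 hours, with cells grown in 96-well plates and compounds tested at five concentrations. TGI: total growth inhibition.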

By TGI is commonly meant the concentration at which net growth stops. Higher therefore signals less potent growth arrest.

Some test systems named below: ACHN renal; NCI-H522 lung; 786-0 renal; RPMI-8226 leukemia; NCI/ADR-RES ovarian; HOP-62 NSCLC; SK-MEL-28 melanoma.
What all share (assay): DTP human tumour cell line panel, 48 h

With `COc1ccc(C2C(C#N)=C(S)N(C3OC(CO)C(O)C(O)C3O)C(C)=C2C(C)=O)cc1` (stereo not drawn), the TGI in the assay on ACHN renal, in the assay on NCI-H522 lung, in the assay on 786-0 renal, in the assay on RPMI-8226 leukemia, in the assay on NCI/ADR-RES ovarian and with HOP-62 NSCLC was greater than 100 µM in each case. The TGI in the assay with SK-MEL-28 melanoma is greater than 100 µM.

Consider `CC(=O)N1C(Nc2cccc3nc(C)ccc23)CCN1c1ccccc1` (stereo not drawn), for which the TGI in the assay on ACHN renal, in the assay with NCI-H522 lung, in the assay on 786-0 renal, in the assay with RPMI-8226 leukemia, in the assay on NCI/ADR-RES ovarian and in the assay with HOP-62 NSCLC was greater than 10 µM each time. This compound also yielded a TGI in the assay on SK-MEL-28 melanoma greater than 10 µM.

As for `CC(=O)OCC1OC(SC2=NC(=O)/C(=C/c3ccccc3)S2)C(OC(C)=O)C(OC(C)=O)C1OC(C)=O` (stereo not drawn), the TGI in the assay with ACHN renal was greater than 100 µM; in the assay on NCI-H522 lung, 80.6 µM; in the assay with 786-0 renal, 30.8 µM; with RPMI-8226 leukemia, 66.3 µM; with NCI/ADR-RES ovarian, 84 µM; with HOP-62 NSCLC it was greater than 100 µM. Moreover, the total growth inhibition concentration (TGI) in the assay on SK-MEL-28 melanoma is greater than 100 µM.

Consider `O=c1[nH]nc(Cc2ccc(Cl)cc2)n1/N=C/c1c[nH]c2ccccc12`, for which the TGI in the assay on ACHN renal, in the assay with NCI-H522 lung, in the assay with 786-0 renal, in the assay on RPMI-8226 leukemia, in the assay with NCI/ADR-RES ovarian and in the assay on HOP-62 NSCLC was greater than 100 µM throughout. This compound also displayed a TGI in the assay on SK-MEL-28 melanoma greater than 100 µM.
